Experimental data published in patent US7767817B2, “Water soluble boronic acid fluorescent reporter compounds and methods of use thereof” (priority 2003, dated 2010).
Like-named read-outs stand apart in the source and are kept apart here.

Columns and labels:
[1] = Fluorescence binding study with fructose
Description: (§1) For a typical sugar-BTBA fluorescent measurement, a 1.0×10^−5 M stock solution of BTBA in 0.10 M phosphate buffer at pH 7.4 was made as solution A. […] Solution B was titrated into solution A in order to make mixtures with a constant concentration of BTBA and a range of concentrations of the sugar. Each mixture was allowed to stand for at least 10 min, then 3.0 mL of the mixture was transferred into a cuvette for fluorescence measurement.
(§2) The association constants (Ka) were determined according to the method III in Valeur's publication (J. Phys. Chem. 1988, 92, 6233).

[2] = Fluorescence binding study with tagatose
Description: as §1, §2

[3] = Stability noted at isolation; type: physicochemical; settings: after TFA deprotection, no further purification
Description: (7). To a solution of 6 (0.2501 g, 0.79 mmol) in DCM (20 mL) was added TFA (5 mL). The solution was stirred for 1 h, and then concentrated in vacuum to give a yellow oil.

[4] = Fluorescence binding study with glucose
Description: as §1, §2

[5] = Fluorescence quantum yield; type: physicochemical
Description: The effect of various carbohydrates on the fluorescent properties of compound 1 was determined in phosphate buffer at pH 7.4. The emission spectral change of 1 with fructose at different concentrations in 0.1 M aqueous phosphate buffer (pH 7.4) is shown in FIG. 4. A 41-fold emission intensity increase is observed in presence of 50 mM fructose. To the best of our knowledge, such a large emission intensity increase has never been reported for boronic acid-based saccharide sensors involving the ICT mechanism. The quantum yields of 1 in the absence (φF=0.010) and in the presence of 50 mM fructose (φF=0.42) in 0.1 M phosphate buffer (pH 7.4) were obtained using 8-quinoline boronic acid (φF=0.58 in 12 M H2SO4) as a reference compound.
For example, addition of fructose (50 mM) to the solution of 7 induced a 36-fold fluorescence intensity increase at 433 nm and a 0.55-fold fluorescence intensity decrease at 513 nm (FIG. 14). […] To the best of our knowledge, such large emission intensity changes at two wavelengths have never been reported for boronic acid-based saccharide sensors. The quantum yields (φF) of 7 were determined as 0.07 at 513 nm in 0.1 M phosphate buffer (pH 7.4) in the absence of a sugar and 0.23 at 433 nm in the presence of 50 mM of fructose, using 8-quinoline boronic acid (φF=0.58 in 12 M H2SO4) as a reference compound.

[6] = Fluorescence intensity pH profile (apparent pKa); type: physicochemical
From the text: Since the fluorescence intensity increase upon binding with a sugar seems to be a general phenomenon, the fluorescence change mechanism of compound 5 at pH 7.4 was investigated. For this purpose, the fluorescence pH profiles of both compound 5 alone and compound 5 in the presence of fructose (0.5 M) were studied. The fluorescence intensity of 5 at 334 nm in the absence of sugars decreased upon changing the pH from 3 to 12 (FIG. 3). An apparent pKa of 7.0 was observed, which is assigned to the boronic acid moiety. […] It is well-known that the binding of a diol to boronic acid often lowers the pKa of the boron species) (Springsteen, G.; Wang, B. Tetrahedron 2002, 58, 5291-5300). Therefore, the pKa, which drops from 7.0 to 4.0, can also be reasonably assigned to boron. […] It seems that the fluorescence intensity change of compound 5 is also due to diol's perturbation as that of 8-quinolineboronic acid.
To examine the relationship between the fluorescence intensity changes and the boron ionization states, the pH profile of the fluorescence intensity in the absence and presence of fructose and glucose at a fixed concentration (50 mM) was also studied (FIG. 6). […] It is worth mentioning that the pKa of the protonated dimethyl amino group of 1 is […] the emission wavelength of 1 with the protonated dimethyl amino group at low pH is about 238 nm. Therefore, the fluorescence intensity of 1 at 445 nm was not affected by the protonated dimethyl amino group. The fluorescence intensity changes correspond to the boronic acid pKa (9.4) and therefore hybridization changes, which was responsible for the fluorescence intensity changes observed.
Since the fluorescence intensity increase upon binding with a sugar seems to be a general phenomenon, next the conditions under which optimal fluorescence intensity changes are observed upon addition of a sugar was investigated. For this purpose, the fluorescence pH profiles of both compound 6 alone and in the presence of fructose (0.5 M) were studied. The fluorescence intensity of 6 in the absence of sugars increased by 17-fold upon changing the pH from 3 to 12 (FIG. 10). […] Furthermore, one would expect the pKa values of the other two ionizable groups, the carboxylic acid and the quinolinium groups, to be less than 7. Therefore, assigning the pKa at 7.9 to the boronic acid moiety is the most reasonable option. […] It is well-known that the binding of a diol to boronic acid often lowers the pKa of the boron species. […] Upon addition of fructose, the pKa of the boron drops to about 5.2, which ensures that most of the boron species are in the anionic tetrahedral state at physiological pH.
Since the fluorescence intensity increase upon binding with a sugar seems to be a general phenomenon, the use of 5-QBA functions as a fluorescent probe for diols was investigated. The fluorescence pH profiles of both 5-QBA alone and 5-QBA in the presence of D-fructose (0.5 M) were investigated. […] In order to assign each pKa, the ^11B NMR spectra of 5-QBA and its ester in a mixed deuterated methanol-water (1:1) solvent at different pH were obtained. Methanol was used so that the concentration of 5-QBA can be increased to 57 mM so as to allow for a meaningful NMR determination within a reasonable period of time.
To understand the structural features associated with the fluorescence intensity changes, we studied the pH profiles of the fluorescence intensity in the absence (FIG. 18) and presence of fructose and glucose at a fixed concentration (50 mM). […] The fluorescence intensity at 513 nm increased very quickly when pH increased from 1.78 to 7.04 (thin lines in FIG. 18), and then decreased in the pH range of 7.04-10.54 (thick lines in FIG. 18).

[7] = Fluorescence binding study with sorbitol
Description: as §1, §2

[8] = Fluorescence binding study with galactose
Description: as §1, §2

[9] = 0.1 M phosphate buffer pH 7.4, 1:1 complex assumed
[10] = fructose 0.05 M, pH 7.4, λex 300 nm
[11] = tagatose 0.05 M, pH 7.4, λex 300 nm
[12] = glucose 1.0 M, pH 7.4, λex 300 nm
[13] = galactose 0.50 M, pH 7.4, λex 300 nm

CN(C)c1cccc2c(B(O)O)cccc12 [Compound 7, 5-(Dimethylamino)-naphthalene-1-boronic acid]
change of the ratio I433/I513 ([1]; 50 mM fructose versus no sugar): 84 fold | Association constant (Ka) with fructose [1, 9]: 311 ± 4 M⁻¹ | emission intensity ratio at 433 and 513 nm (I433/I513) ([1]; before addition of a sugar, pH 7.4): 0.11 | fluorescence intensity change ΔI/I0 at 433 nm [1, 10]: 36 (0.05) | fluorescence intensity change ΔI/I0 at 513 nm [1, 10]: −0.61 (0.05) | fluorescence intensity decrease at 513 nm ([1]; fructose 50 mM, phosphate buffer pH 7.4): 0.55 fold | emission intensity ratio at 433 and 513 nm (I433/I513) ([1]; upon addition of 0.1 mM fructose): 0.23 | Association constant (Ka) with tagatose [2, 9]: 229 ± 3 M⁻¹ | fluorescence intensity change ΔI/I0 at 433 nm [2, 11]: 37 (0.05) | fluorescence intensity change ΔI/I0 at 513 nm [2, 11]: −0.55 (0.05) | fluorescence intensity increase at 433 nm ([2]; tagatose, physiological pH): about 36 fold | stability [3]: not stable in neutral | Association constant (Ka) with glucose [4, 9]: 3.6 ± 0.1 M⁻¹ | fluorescence intensity change ΔI/I0 at 433 nm [4, 12]: 23 (1.0) | fluorescence intensity change ΔI/I0 at 513 nm [4, 12]: −0.54 (1.0) | maximum fluorescence intensity increase at 433 nm ([4]; glucose 1 M, physiological pH): 23 fold | quantum yield φF at 513 nm ([5]; absence of a sugar, 0.1 M phosphate buffer pH 7.4): 0.07 | quantum yield φF at 433 nm ([5]; presence of 50 mM fructose): 0.23 | pKa ([6]; 0.1 M aqueous phosphate buffer with 50 mM glucose, presence of glucose, intensity at 335 nm, read-out: first apparent pKa (aniline group)): 5.1 | pKa ([6]; 0.1 M aqueous phosphate buffer, compound alone, intensity at 335 nm, read-out: first apparent pKa (aniline group)): 5.1 | pKa ([6]; 0.1 M phosphate buffer, absence of sugar, 0.1 M phosphate buffer, read-out: apparent pKa assigned to the boronic acid moiety): ~9 | Association constant (Ka) with sorbitol [7, 9]: 337 ± 5 M⁻¹ | fluorescence intensity change ΔI/I0 at 513 nm ([7]; sorbitol 0.05 M, pH 7.4, λex 300 nm): −0.48 (0.05) | fluorescence intensity change ΔI/I0 at 433 nm ([7]; sorbitol 0.20 M, pH 7.4, λex 300 nm): 42 (0.20) | fluorescence intensity increase at 433 nm ([7]; sorbitol 200 mM, physiological pH): 42 fold | melting point: 95 to 96 °C | Association constant (Ka) with galactose [8, 9]: 23.0 ± 0.2 M⁻¹ | fluorescence intensity change ΔI/I0 at 433 nm [8, 13]: 36 (0.50) | fluorescence intensity change ΔI/I0 at 513 nm [8, 13]: −0.56 (0.50) | fluorescence intensity increase at 433 nm ([8]; galactose, physiological pH): about 36 fold
